From US20220154204A1, “ENHANCING DROUGHT, SALINITY AND COLD TOLERANCE IN PLANTS AND TREES” (The Regents of the University of California, priority 2019, published 2022)

Tests used:
OST1/SnRK2.6 [1] = assay: In vivo Ser-171 phosphorylation of OST1/SnRK2.6-GFP in mesophyll cell protoplasts by LC-MS/MS; format: cell-based, Arabidopsis; conditions: 20 μM ABA for 15 min vs control
Protocol: 30 μg GST-OST1/SnRK2.6(D140A) and 2.5 μg GST-M3Kδ1 kinase domain were incubated in phosphorylation buffer (50 mM Tris-HCl pH 7.5, 10 mM MgCl2, 0.1% Triton X-100, and 1 mM DTT) with 1 mM ATP for 2 hr at room temperature. Proteins were precipitated by acetone precipitation and dissolved in SDS-PAGE loading buffer. After SDS-PAGE and CBB staining, protein bands of GST-OST1/SnRK2.6(D140A) were excised and analyzed by LC-MS/MS^17. For in vivo Ser-171 phosphorylation, OST1/SnRK2.6-GFP was transiently expressed in Arabidopsis mesophyll cell protoplasts. The protoplasts were incubated with or without 20 μM ABA for 15 min, and OST1/SnRK2.6 proteins were purified by immunoprecipitation using anti-GFP antibodies. After SDS-PAGE and CBB staining, OST1/SnRK2.6-GFP bands were excised and analyzed by LC-MS/MS^17
a, The sequence of identified phosphorylated peptide by mass spectrometry. OST1/SnRK2.6-GFP was expressed in Arabidopsis mesophyll cell protoplasts and purified by immunoprecipitation with GFP antibodies before or after 20 μM ABA treatment for 15 min. S(+79.97) indicates phosphorylated serine residues. Values (Control and ABA) indicate normalized peak areas for phosphorylated peptides. The phosphorylated peptide was not detected in the control sample.

S-type anion channels = assay: Patch-clamp analyses of S-type anion channel currents in guard cell protoplasts; format: cell-based, Arabidopsis; conditions: 10 μM, guard cells of wildtype (Col-0) and HsMYO control line
Protocol: Guard cell protoplasts from 4 to 6 week-old Arabidopsis plants were prepared^24,33 ABA-activated S-type anion channel current recordings were carried out by using an Axon 200A amplifier (Axon instruments) and a Digidata 1440A low-noise data acquisition system. Epidermal tissues were isolated from one or two rosette leaves and collected using a nylon mesh (100-μm pore size). […]
S-type anion currents in guard cell protoplasts were recorded using the whole-cell patch-clamp technique^24,33. […]
a, Leaves from m3k amiRNAi and the control amiRNA-HsMYO line (expressing an amiRNA targeting human myosin 2), which has no target gene in Arabidopsis plants were analyzed in time-resolved stomatal conductance analyses in which 1 μM ABA was added to the transpiration stream via the petiole (as described in e.g., Ceciliato, P. et al. Plant Methods 15, doi:10.1186/s13007-019-0423-y (2019)) as indicted by the red arrowhead (n=3 leaves from 3 independent plants per genotype, +/−s.d.). b, Normalized relative stomatal conductance to the first data point shown in (a). c-h, ABA-activated S-type anion channel currents were investigated by patch-clamp analyses using guard cell protoplasts from the wildtype parent Col-0 (c, d), the HsMYO amiRNA control line (e, f), and the m3k amiRNA line (g, h). […]

SLAC1 = assay: Two-electrode voltage clamp recordings of SLAC1 currents in Xenopus oocytes; format: cell-based, Arabidopsis; conditions: Xenopus oocytes co-injected with PYL9/RCAR1, ABI1, OST1/SnRK2.6, SLAC1 with or without M3Ks, 50 μM ABA
Source text: The PCR amplified cDNA fragments of OST1, SLAC1, PYL9/RCAR1, ABI1, M3Kδ1, M3Kδ6 and M3Kδ7 were cloned into the oocyte expression vector pNB1 by using an advanced uracil-excision based cloning strategy as previously described^60. The mutant isoforms OST1-S171A, M3Kδ6-K775W and M3Kδ7-K740W were generated using the Quikchange Site-Directed Mutagenesis kit (Agilent Technologies). Linearized plasmids were used to generate cRNAs via the mMESSAGE mMACHINE® T7 kit (Thermo Fisher Scientific, Catalog number: AM1344). […] Steady state currents were recorded with 3 second voltage pulses ranging from +40 mV to −120 mV in −20 mV decrements, followed by a “tail” voltage of −120 mV and the holding potential was kept at 0 mV.
SLAC1-mediated currents in oocytes vary showing either time-dependent relaxation or more instantaneous currents when using a chloride bath solution^61,62. […] To avoid time-of-measurement and inter-batch dependence in the data, H2O-injected control and other indicated controls were included in each batch of oocytes and control experiments were recorded intermittently with the investigated conditions.
a and b, In vitro reconstitution of ABA-induced OST1/SnRK2 activation without M3Kδ6 (a) or with M3Kδ6 (b). […] Phosphorylation of AKS1 is detected by binding of 14-3-3Phi (At1g35160) to the phosphorylated AKS1 protein^15. […]

OST1/SnRK2.6 [2] = molecular target: T1, OST1/SnRK2.6 (Arabidopsis thaliana, UniProt Q940H6); assay: In vitro phosphorylation assay of CIAP-dephosphorylated GST-OST1/SnRK2.6 with other protein kinases; format: biochemical; conditions: GST-OST1/SnRK2.6 dephosphorylated by CIAP, [γ-32P]-ATP
T1 construct: made in house; host or cells: E. coli
T1 sequence (Q940H6 1-362): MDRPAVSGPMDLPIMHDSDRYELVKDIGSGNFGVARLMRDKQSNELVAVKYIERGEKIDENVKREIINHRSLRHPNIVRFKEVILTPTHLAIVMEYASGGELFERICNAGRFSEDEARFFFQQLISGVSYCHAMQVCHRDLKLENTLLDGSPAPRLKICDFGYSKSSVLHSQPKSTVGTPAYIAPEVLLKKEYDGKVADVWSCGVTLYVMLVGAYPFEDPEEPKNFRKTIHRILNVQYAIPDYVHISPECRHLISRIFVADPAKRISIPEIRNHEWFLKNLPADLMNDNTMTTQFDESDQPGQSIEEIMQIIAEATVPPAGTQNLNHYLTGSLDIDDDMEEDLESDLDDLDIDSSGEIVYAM
Protocol: We investigated phosphorylation of purified recombinant GST-tagged OST1/SnRK2.6 protein kinase after dephosphorylation in vitro. To test whether OST1/SnRK2.6 could be re-activated by autophosphorylation, after dephosphorylation, the GST-OST1/SnRK2.6 protein bound on glutathione sepharose 4B resin was incubated with calf intestinal alkaline phosphatase (CIAP), and [γ-^32P]-ATP was added to the reaction after wash out of CIAP. […] Therefore, another unknown protein kinase may be required for reversible ABA signal transduction.
10 μg GST-OST1/SnRK2.6 proteins were bound to glutathione sepharose 4B beads and incubated with 30 U CIAP for 2 hr at room temperature. […]
a, Seeds of amiR-HsMYO wild-type (control line) or amiR-ax1117 mutant were sowed on ½ MS medium containing 2 μM ABA, or 0.02% EtOH as control, for germination assays. Representative images showing seed germination after 6 days. b, The percentage of seedlings showing green cotyledons was analyzed. […] In-gel kinase assays were performed using histone type III-S as a substrate. e, SnRK2 band intensities as shown in (d) were measured using ImageJ, n=3 experiments, error bars show +/−s.e.m. f, Recombinant GST-OST1/SnRK2.6 protein was dephosphorylated by alkaline phosphatase in vitro and used for in vitro phosphorylation assays after incubation with CPK6, CPK23 or MPK12 protein kinases. […]

Row | Molecule | phosphorylation of OST1 Ser171 in mesophyll cells (OST1/SnRK2.6 [1]) | activation of S-type anion currents in guard cells (S-type anion channels) | ABA-dependent SLAC1 anion channel activation (SLAC1) | phosphorylation of OST1/SnRK2.6 after dephosphorylation (OST1/SnRK2.6 [2])
1 | CC1=CC(=O)CC(C)(C)[C@@]1(O)/C=C/C(C)=C\C(=O)O [ABA, abscisic acid] | clearly phosphorylated | typical ABA activation of S-type anion currents | could activate SLAC1 in oocytes only in the presence of low concentrations of either M3Kδ1, M3Kδ6 or M3Kδ7 mRNAs | –
2 | CPK23: calcium-dependent protein kinase of ABA signalling | – | – | – | did not phosphorylate
